Experimental data from ChEMBL document CHEMBL4651402, “Screening of ~5500 FDA-approved drugs and clinical candidates for anti-SARS-CoV-2 activity” (2021).
pIC50: −log10 of the molar value.

Legend:
[1] = system: SARS-CoV-2; assay: microbe, parasite or virus in culture; details: Severe acute respiratory syndrome coronavirus 2, Vero C1008, 48 h; for IC50: read-out: pIC50 (converted)
[2] = system: SARS-CoV-2; assay: microbe, parasite or virus in culture; format: functional, organism-based, Chlorocebus sabaeus, Vero C1008; details: Severe acute respiratory syndrome coronavirus 2, Vero C1008, 48 h; for pIC50: read-out: IC50; for IC50: read-out: pIC50 (converted)
[3] = in vitro; details: chlorocebus sabaeus, Vero E6 (Vero C1008) cells

| SMILES | pIC50 [1] | IC50 [1] | pIC50 [2] | IC50 [2] | CC50 at 48 h ([3]; CC50) | CC50 at 48 h ([3]; pCC50) |
| --- | --- | --- | --- | --- | --- | --- |
| Clc1cnn(CCCCN2CCN(c3ncccn3)CC2)c1 [LESOPITRON] | 5.63 | 2.34 µM | < 4.00 | > 100 µM | > 100 µM | > 100 µM |
| COc1ccc2c(c1)N(C[C@H](C)CN(C)C)c1ccccc1S2 [LEVOMEPROMAZINE] | 4.93 | 11.7 µM | < 4.30 | > 50.1 µM | 11.6 µM | 11.5 µM |
| Cc1cccc(C)c1NC(=O)CN1CCN(CCCC(c2ccc(F)cc2)c2ccc(F)cc2)CC1 [LIDOFLAZINE] | 5.02 | 9.55 µM | < 4.00 | > 100 µM | 8.41 µM | 8.32 µM |
| CN1CCC(OC(=O)C(Oc2ccc(Cl)cc2)Oc2ccc(Cl)cc2)CC1 [LIFIBRATE] | < 4.00 | > 100 µM | < 4.00 | > 100 µM | 38 µM | 38 µM |
| Cc1cccc(C)c1OCC(=O)N[C@@H](Cc1ccccc1)[C@@H](O)C[C@H](Cc1ccccc1)NC(=O)[C@H](C(C)C)N1CCCNC1=O [LOPINAVIR] | 4.64 | 22.9 µM | ~4.80 | ~15.5 µM | ~33.7 µM | ~33.9 µM |
| C#C[C@]1(O)CC[C@H]2[C@@H]3CCC4=CCCC[C@@H]4[C@H]3CC[C@@]21C [LYNESTRENOL] | < 4.30 | > 50.1 µM | < 4.30 | > 50.1 µM | 10.5 µM | 10.5 µM |
| c1ccc2c(c1)Sc1ccccc1N2CC1CN2CCC1CC2 (centres undefined) [MEQUITAZINE] | 5.11 | 7.76 µM | < 4.00 | > 100 µM | 7.76 µM | 7.76 µM |
| CN1CCC(CN2c3ccccc3Sc3ccccc32)C1 (centres undefined) [METHDILAZINE] | 4.79 | 16.2 µM | < 4.00 | > 100 µM | 14.8 µM | 14.8 µM |
| CN1CCCC(CC2c3ccccc3Sc3ccccc32)C1 (centres undefined) [METHIXENE] | 5.02 | 9.55 µM | < 4.00 | > 100 µM | 10.1 µM | 10 µM |
| COc1ccc2c(c1)N(CCCN(C)C)c1ccccc1S2 [METHOXYPROMAZINE] | < 4.70 | > 20 µM | < 4.00 | > 100 µM | 14.1 µM | 14.1 µM |
| CCC1(CC)C(=O)NCC(C)C1=O (centres undefined) [METHYPRYLON] | 4.74 | 18.2 µM | < 4.60 | > 25.1 µM | > 25.1 µM | > 25.1 µM |
| COc1cc(C(=O)OCCN2CCN(CCCN3c4ccccc4Sc4ccc(Cl)cc43)CC2)cc(OC)c1OC [METOFENAZATE] | 4.73 | 18.6 µM | < 4.00 | > 100 µM | > 100 µM | > 100 µM |
| O=C(c1ccc(F)cc1)C1CCN(CCCn2c(=O)[nH]c3cc(Cl)ccc32)CC1 [MILENPERONE] | < 4.00 | > 100 µM | < 4.00 | > 100 µM | 32.4 µM | 32.4 µM |
| COc1ccc2cc(-c3cc(-c4cc(Cl)cc(Cl)c4)nn3[C@@H](C)c3ccc(C(=O)NCCC(=O)O)cc3)ccc2c1 [MK-0893] | < 4.00 | > 100 µM | < 4.00 | > 100 µM | ~18.8 µM | ~18.6 µM |
| NC(CO)(CO)CCc1ccc(Sc2cccc(OCc3ccccc3)c2)cc1Cl [MOCRAVIMOD] | 5.48 | 3.31 µM | < 4.00 | > 100 µM | 3.06 µM | 3.02 µM |
| O=C1NC2CCCCN2C12CCN(CCCN1c3ccccc3CCc3ccc(Cl)cc31)CC2 (centres undefined) [MOSAPRAMINE] | 5.13 | 7.41 µM | < 4.00 | > 100 µM | 8.13 µM | 8.13 µM |
| CCCCCCC(C)(C)c1cc(O)c2c(c1)OC(C)(C)C1CCC(=O)CC21 (centres undefined) [NABILONE] | 5.05 | 8.91 µM | < 4.60 | > 25.1 µM | 11.1 µM | 11 µM |
| COc1ccc2c(c1)CCC(c1ccccc1)=C2c1ccc(OCCN2CCCC2)cc1 [NAFOXIDINE] | < 4.00 | > 100 µM | < 4.00 | > 100 µM | 3.85 µM | 3.8 µM |
| CC1(C)CCC(c2ccc(Cl)cc2)=C(CN2CCN(c3ccc(C(=O)NS(=O)(=O)c4ccc(N[C@H](CCN5CCOCC5)CSc5ccccc5)c(S(=O)(=O)C(F)(F)F)c4)cc3)CC2)C1 [NAVITOCLAX] | < 4.00 | > 100 µM | < 4.00 | > 100 µM | 4.73 µM | 4.68 µM |
